The values that follow come from ChEMBL document CHEMBL1275357, “Inhibition of Helicobacter pylori aminoacyl-tRNA amidotransferase by chloramphenicol analogs” (Bioorg Med Chem, 2010).

The experiment is described as follows: Competitive inhibition of Helicobacter pylori aminoacyl-tRNA […] GatCAB.
`CS(=O)(=O)CC[C@H](N)C(=O)N[C@@H](CO)[C@@H](O)c1ccc([N+](=O)[O-])cc1`: the Ki (commonly a dissociation constant, usually derived from enzyme kinetics or from competition with a known ligand) turned out to be 160 µM.
For `CS(=O)(=O)CC[C@H](N)C(=O)N[C@H](CO)[C@H](O)c1ccc([N+](=O)[O-])cc1` the value was 27 µM.
`O=C(N[C@H](CO)[C@H](O)c1ccc([N+](=O)[O-])cc1)C(Cl)Cl` [CHLORAMPHENICOL]: the Ki is 1850 µM.
For `CS(=O)(=O)CC[C@H](N)C(=O)N[C@H](CO)[C@H](O)c1ccccc1` the value was 400 µM; for `CN(C)c1ncnc2c1ncn2[C@@H]1O[C@H](CO)[C@@H](NC(=O)[C@@H](N)CCS(C)(=O)=O)[C@H]1O`, 4 µM.
As for `CS(=O)(=O)CC[C@H](N)C(=O)N[C@H](CO)[C@H](O)c1ccc(S(C)(=O)=O)cc1`, the figure is 120 µM.
For `CS(=O)(=O)CC[C@H](N)C(=O)N[C@H](CO)[C@@H](O)c1ccc([N+](=O)[O-])cc1` the value was 2800 µM; for `CS(=O)(=O)CC[C@H](N)C(=O)N[C@@H](CO)[C@H](O)c1ccc([N+](=O)[O-])cc1`, 370 µM.
